Source: PubChem BioAssay AID256 (DTP/NCI, 2004)
“And” between values parts separate entries of the source, which are not always exact repeats. Equal values may be shown once. Toxic doses and inconclusive results are not listed. How the source made its calls: active means survival T/C of 150% or more; inactive means T/C below 125% in these data.

Test system: CD2F1 mice, L1210 leukemia ip, survival T/C
Assay: NCI In Vivo Anticancer Drug Screen. Data for tumor model L1210 Leukemia (intraperitoneal) in CD2F1 (CDF1) mice
Details: higher = longer survival
Method in brief: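 Each value reflects a quotient of treated over vehicle control outcomes in mice with a transplanted tumor.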

[1] = endpoint: mean survival time, dose: 50.0 mg/kg/injection, schedule: Q01DX009 (ip), vehicle: saline with Tween-80
[2] = endpoint: mean survival time, dose: 100.0 mg/kg/injection, schedule: Q01DX009 (ip), vehicle: saline with Tween-80
[3] = endpoint: mean survival time, dose: 200.0 mg/kg/injection, schedule: Q01DX009 (ip), vehicle: saline with Tween-80
[4] = endpoint: mean survival time, dose: 100.0 mg/kg/injection, schedule: Q04DX002 (ip), vehicle: saline with Tween-80
[5] = endpoint: mean survival time, dose: 200.0 mg/kg/injection, schedule: Q04DX002 (ip), vehicle: saline with Tween-80
[6] = endpoint: mean survival time, dose: 25.0 mg/kg/injection, schedule: Q01DX009 (ip), vehicle: saline with Tween-80
[7] = endpoint: mean survival time, dose: 100.0 mg/kg/injection, schedule: Q01DX009 (ip), vehicle: Klucel (hydroxypropylcellulose) (HPC)
[8] = endpoint: mean survival time, dose: 200.0 mg/kg/injection, schedule: Q01DX009 (ip), vehicle: Klucel (hydroxypropylcellulose) (HPC)
[9] = endpoint: mean survival time, dose: 12.5 mg/kg/injection, schedule: Q01DX009 (ip), vehicle: saline with Tween-80
[10] = endpoint: mean survival time, dose: 50.0 mg/kg/injection, schedule: Q01DX009 (ip), vehicle: Klucel (hydroxypropylcellulose) (HPC)
[11] = endpoint: mean survival time, dose: 100.0 mg/kg/injection, schedule: Q04DX003 (ip), vehicle: saline with Tween-80
[12] = endpoint: mean survival time, dose: 200.0 mg/kg/injection, schedule: Q04DX003 (ip), vehicle: saline with Tween-80
[13] = endpoint: mean survival time, dose: 400.0 mg/kg/injection, schedule: Q01DX009 (ip), vehicle: saline with Tween-80

Measured: T/C

NC(=S)N/N=C/c1cc(=O)c2cc(Cl)ccc2o1
inactive: endpoint: median survival time, dose: 75.0 mg/kg/injection, schedule: Q01DX005 (ip), vehicle: DMSO 95 % of control | endpoint: median survival time, dose: 150.0 mg/kg/injection, schedule: Q01DX005 (ip), vehicle: DMSO 98 % of control | endpoint: median survival time, dose: 300.0 mg/kg/injection, schedule: Q01DX005 (ip), vehicle: DMSO 97 % of control | endpoint: median survival time, dose: 600.0 mg/kg/injection, schedule: Q01DX005 (ip), vehicle: DMSO 96 % of control | endpoint: median survival time, dose: 1200.0 mg/kg/injection, schedule: Q01DX005 (ip), vehicle: DMSO 104 % of control

CC(CCc1ccc(S(=O)(=O)Cl)cc1)c1ccc(S(=O)(=O)Cl)cc1 (stereo not drawn)
inactive: [1] 106 % of control | [2] 95 % of control | [3] 91 % of control

CC(C)(C)c1cc(N)cc(C(C)(C)C)c1O
inactive: endpoint: mean survival time, dose: 50.0 mg/kg/injection, schedule: Q04DX002 (ip), vehicle: saline with Tween-80 91 % of control | [4] 98 % of control | [5] 98 % of control

CC1=CC(=O)C2(C)C(C)=C(C)C12C (stereo not drawn)
inactive: [6] 104 % of control | [1] 100 % of control | [2] 102 % of control

Cc1c[nH]c(=S)[nH]c1=O.[Pd]
inactive: endpoint: mean survival time, dose: 3.12 mg/kg/injection, schedule: Q04DX003 (ip), vehicle: saline 94 % of control | endpoint: mean survival time, dose: 6.25 mg/kg/injection, schedule: Q04DX003 (ip), vehicle: saline 102 % of control | endpoint: mean survival time, dose: 12.5 mg/kg/injection, schedule: Q04DX003 (ip), vehicle: saline 97 % of control | endpoint: mean survival time, dose: 25.0 mg/kg/injection, schedule: Q04DX003 (ip), vehicle: saline 102 % of control | endpoint: mean survival time, dose: 50.0 mg/kg/injection, schedule: Q04DX003 (ip), vehicle: saline 100 % of control | endpoint: mean survival time, dose: 100.0 mg/kg/injection, schedule: Q04DX003 (ip), vehicle: saline 100 % of control | endpoint: mean survival time, dose: 200.0 mg/kg/injection, schedule: Q04DX003 (ip), vehicle: saline 96 % of control

O=C(C[n+]1ccccc1)N/N=C/c1ccc(Cl)cc1
inactive: [2] 107 % of control

CC(=O)OC1CCC2(C)C3CCC4(C)C(C(C)CCCC(C)C)CCC4C3C3C(=O)OC32C1 (stereo not drawn)
inactive: endpoint: mean survival time, dose: 100.0 mg/kg/injection, schedule: Q01DX001 (ip), vehicle: acetone 97 % of control | endpoint: mean survival time, dose: 100.0 mg/kg/injection, schedule: Q04DX003 (ip), vehicle: acetone 98 % of control | endpoint: mean survival time, dose: 200.0 mg/kg/injection, schedule: Q01DX001 (ip), vehicle: acetone 101 % of control | endpoint: mean survival time, dose: 200.0 mg/kg/injection, schedule: Q04DX003 (ip), vehicle: acetone 93 % of control | endpoint: mean survival time, dose: 400.0 mg/kg/injection, schedule: Q01DX001 (ip), vehicle: acetone 97 % of control | endpoint: mean survival time, dose: 400.0 mg/kg/injection, schedule: Q04DX003 (ip), vehicle: acetone 90 % of control

C1CCC(C2CCCC[N-]2)[N-]C1.CC([NH-])C(=O)O.[Cl][Pt] (stereo not drawn)
inactive: endpoint: median survival time, dose: 10.0 mg/kg/injection, schedule: Q04DX003 (ip), vehicle: saline 107 % of control | endpoint: median survival time, dose: 20.0 mg/kg/injection, schedule: Q04DX003 (ip), vehicle: saline 105 % of control | endpoint: median survival time, dose: 40.0 mg/kg/injection, schedule: Q04DX003 (ip), vehicle: saline 110 % of control | endpoint: median survival time, dose: 80.0 mg/kg/injection, schedule: Q04DX003 (ip), vehicle: saline 97 % of control and 104 % of control | endpoint: median survival time, dose: 160.0 mg/kg/injection, schedule: Q04DX003 (ip), vehicle: saline 108 % of control | endpoint: median survival time, dose: 320.0 mg/kg/injection, schedule: Q04DX003 (ip), vehicle: saline 96 % of control

COc1ccc2c(O)c(-c3ccc(OC)c(OC)c3)c(=O)oc2c1
inactive: [6] 96 % of control | [1] 103 % of control | [2] 106 % of control

CCOC(=O)c1ccc(NC(=O)c2ccc(OCCOc3ccc(C(C)(C)CC(C)(C)C)cc3)c(NC(=O)CC(=O)c3cccc([N+](=O)[O-])c3)c2)cc1
inactive: [7] 92 % of control | endpoint: mean survival time, dose: 100.0 mg/kg/injection, schedule: Q04DX003 (ip), vehicle: Klucel (hydroxypropylcellulose) (HPC) 111 % of control | [8] 92 % of control | endpoint: mean survival time, dose: 200.0 mg/kg/injection, schedule: Q04DX003 (ip), vehicle: Klucel (hydroxypropylcellulose) (HPC) 100 % of control | endpoint: mean survival time, dose: 400.0 mg/kg/injection, schedule: Q01DX009 (ip), vehicle: Klucel (hydroxypropylcellulose) (HPC) 103 % of control | endpoint: mean survival time, dose: 400.0 mg/kg/injection, schedule: Q04DX003 (ip), vehicle: Klucel (hydroxypropylcellulose) (HPC) 102 % of control

Cc1cccc(NC(=O)c2ccccc2)n1
inactive: [9] 97 % of control | [6] 101 % of control | [1] 103 % of control

O=C(Cc1ccc([N+](=O)[O-])cc1)Nc1ccc(S(=O)(=O)F)cc1
inactive: endpoint: mean survival time, dose: 100.0 mg/kg/injection, schedule: Q01DX001 (ip), vehicle: saline 96 % of control | endpoint: mean survival time, dose: 200.0 mg/kg/injection, schedule: Q01DX001 (ip), vehicle: saline 103 % of control | endpoint: mean survival time, dose: 400.0 mg/kg/injection, schedule: Q01DX001 (ip), vehicle: saline 100 % of control

COc1ccc(NC(=O)N(CCO)c2ccccc2)c(Cl)c1
inactive: [10] 107 % of control | [7] 104 % of control | [8] 107 % of control

COc1cc2c(cc1OC)C(N)CCC2 (stereo not drawn)
inactive: endpoint: mean survival time, dose: 12.5 mg/kg/injection, schedule: Q01DX009 (ip), vehicle: water 97 % of control | endpoint: mean survival time, dose: 25.0 mg/kg/injection, schedule: Q01DX009 (ip), vehicle: water 103 % of control | endpoint: mean survival time, dose: 50.0 mg/kg/injection, schedule: Q01DX009 (ip), vehicle: water 98 % of control | endpoint: mean survival time, dose: 100.0 mg/kg/injection, schedule: Q01DX009 (ip), vehicle: water 105 % of control

ClC1C(Cl)(Cl)C1(Cl)Cl
inactive: endpoint: mean survival time, dose: 37.5 mg/kg/injection, schedule: Q01DX001 (ip), vehicle: saline 100 % of control | endpoint: mean survival time, dose: 75.0 mg/kg/injection, schedule: Q01DX001 (ip), vehicle: saline 102 % of control | endpoint: mean survival time, dose: 150.0 mg/kg/injection, schedule: Q01DX001 (ip), vehicle: saline 95 % of control

Oc1ccc(C/C=C/c2ccccc2)cc1
inactive: [11] 102 % of control | [12] 100 % of control | endpoint: mean survival time, dose: 400.0 mg/kg/injection, schedule: Q04DX003 (ip), vehicle: saline with Tween-80 102 % of control

CCOC(=O)CCCC/C(C)=N\N=C(C(C)C)C(C)C
inactive: endpoint: mean survival time, dose: 75.0 mg/kg/injection, schedule: Q01DX001 (ip), vehicle: other 103 % of control | endpoint: mean survival time, dose: 150.0 mg/kg/injection, schedule: Q01DX001 (ip), vehicle: other 97 % of control | endpoint: mean survival time, dose: 300.0 mg/kg/injection, schedule: Q01DX001 (ip), vehicle: other 89 % of control

O=[n+]1ccn([O-])c2ccccc21
inactive: [4] 111 % of control | [5] 105 % of control

CC1=NCCc2c1cc1c([nH]c3ccccc31)c2C
inactive: endpoint: mean survival time, dose: 44.0 mg/kg/injection, schedule: Q01DX009 (ip), vehicle: saline with Tween-80 114 % of control | endpoint: mean survival time, dose: 67.0 mg/kg/injection, schedule: Q01DX009 (ip), vehicle: saline with Tween-80 96 % of control

CN(C)/C=N/NC(=O)C(O)c1ccccc1 (stereo not drawn)
inactive: [2] 102 % of control | [3] 102 % of control | [13] 100 % of control

Nc1ncnc2c(C3OC(CO)C(O)C3O)[nH]nc12 (stereo not drawn)
inactive: endpoint: mean survival time, dose: 6.25 mg/kg/injection, schedule: Q01DX009 (ip), vehicle: saline with Tween-80 108 % of control | [9] 120 % of control | [6] 113 % of control | [11] 101 % of control | [12] 109 % of control

CC(=O)OC1COCOC1C1OCOCC1OC(C)=O (stereo not drawn)
inactive: [10] 102 % of control | [7] 102 % of control | [8] 110 % of control

NC(=O)C1=C(N)CCC1
inactive: [2] 104 % of control | [3] 104 % of control | [13] 106 % of control
